# Changes are numbered by the printed parent chain. pKd: −log10 of the molar value.
# Columns and labels:
# [1] = biological target: T1, Synechocystis halorhodopsin (SyHR) (Synechocystis sp. PCC 7509, UniProt A0A9X9ZA75); experiment: absorption spectral shift titration (UV-visible), single-site Hill fit; format: binding
# T1 construct: codon-optimised, C-terminal His6 tag, pET21a, E. coli BL21(DE3) with all-trans retinal; HisTrap-purified in DDM
# T1 sequence (A0A9X9ZA75 1-234): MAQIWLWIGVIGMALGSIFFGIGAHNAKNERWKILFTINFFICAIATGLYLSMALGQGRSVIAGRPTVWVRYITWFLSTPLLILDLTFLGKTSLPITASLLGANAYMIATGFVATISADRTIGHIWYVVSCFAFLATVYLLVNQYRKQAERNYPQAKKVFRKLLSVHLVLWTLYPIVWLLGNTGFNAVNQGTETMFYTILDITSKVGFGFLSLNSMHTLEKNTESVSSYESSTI
# [2] = biological target: T2, Synechocystis halorhodopsin (SyHR) (Synechocystis sp. PCC 7509, UniProt A0A9X9ZA75, R71K); experiment: as above; format: binding
# T2 construct: codon-optimised, C-terminal His6 tag, pET21a, E. coli BL21(DE3) with all-trans retinal; HisTrap-purified in DDM
# T2 sequence (A0A9X9ZA75 1-234 R71K): T1 sequence (A0A9X9ZA75 1-234) with R71K
# [3] = biological target: T3, Synechocystis halorhodopsin (SyHR) (Synechocystis sp. PCC 7509, UniProt A0A9X9ZA75, H167A); experiment: as above; format: binding
# T3 construct: codon-optimised, C-terminal His6 tag, pET21a, E. coli BL21(DE3) with all-trans retinal; HisTrap-purified in DDM
# T3 sequence (A0A9X9ZA75 1-234 H167A): T1 sequence (A0A9X9ZA75 1-234) with H167A
# [4] = biological target: T4, Synechocystis halorhodopsin (SyHR) (Synechocystis sp. PCC 7509, UniProt A0A9X9ZA75, R71Y); experiment: biochemical
# T4 sequence (A0A9X9ZA75 1-234 R71Y): T1 sequence (A0A9X9ZA75 1-234) with R71Y
# [5] = biological target: T5, Synechocystis halorhodopsin (SyHR) (Synechocystis sp. PCC 7509, UniProt A0A9X9ZA75, R71A); experiment: biochemical
# T5 sequence (A0A9X9ZA75 1-234 R71A): T1 sequence (A0A9X9ZA75 1-234) with R71A
structure (smiles),measurement,setting,value
O=S(=O)(O)O [SO4^2−],pKd,[1],2.44
same,pKd,[2],2.42
same,pKd,[3],2.19
Cl [Cl^−],pKd,[1],3.23
same,pKd,[4],2.85
same,pKd,[2],3.26
same,pKd,[3],3.44
same,pKd,[5],2.35
